We go through 13 compounds from patent US9216173B2, “2-Pyridyl carboxamide-containing spleen tyrosine kinase (SYK) inhibitors” (Merck Sharp & Dohme Corp., priority 2011, dated 2015).

pIC50: −log10 of the molar value.

The target of one test is T1, recombinant human GST-SYK (Homo sapiens, UniProt P43405).
T1 construct: purchased Carna Biosciences 08-176
In words: Homogeneous Time-Resolved Fluorescence (HTRF) assay for the recombinant human Syk enzyme. In kind it is biochemical. The settings on record: GST-hSYK 5 pM, ATP 25 μM, 10-dose titration 10 μM to 0.508 nM; read-out: IC50. The method, then:
Homogeneous Time-Resolved Fluorescence (HTRF) Assay for the Recombinant Human Syk Enzyme
A recombinant GST-hSYK fusion protein was used to measure potency of compounds to inhibit human Syk activity. […] Final volume of the reaction was 10 μL. Phosphorylation of the peptide was allowed to proceed for 45 minutes at room temperature. To quench the reaction and detect the phosphorylated product, 2 nM of a Europium-anti-phosphotyrosine antibody (Perkin Elmer #AD0161) and 70 nM SA-APC (Perkin-Elmer #CR130-100) were added together in 15 mM Tris pH 7.5, 40 mM EDTA, 0.01% tween 20. Final volume of the quenching solution was 10 μL. The resulting HTRF signal was measured after 30 minutes on an EnVision (Perkin-Elmer) reader using a time-resolved fluorescence protocol.
For `Cc1nc(Nc2cc(N[C@@H]3CCCC[C@@H]3N)cnc2C(N)=O)ccc1-c1ccccc1` [Example 3.2, 5-{[(1R,2S)-2-aminocyclohexyl]amino}-3-[(6-methyl-5-phenylpyridin-2-yl)amino]pyridine-2-carboxamide], the pIC50 is 8.41.

The test is the same for the next values; noted with them: GST-hSYK 5 pM, ATP 25 μM, 10-dose titration 10 μM to 0.508 nM; read-out: rhSYK Activity (IC50 rating).
`Cc1cc(N2CCOCC2)cc(Nc2cc(N[C@@H]3CCCC[C@@H]3N)cnc2C(N)=O)n1` [Example 1.77, 5-{[(1R,2S)-2-aminocyclohexyl]amino}-3-[(6-methyl-4-morpholin-4-ylpyridin-2-yl)amino]pyridine-2-carboxamide]: the pIC50 is above 8.00.
In the case of `NC(=O)c1ncc(N[C@@H]2CS(=O)(=O)CC[C@@H]2N)cc1Nc1ccn(-c2ccc(F)cc2)n1` (relative stereo) [Example 1.90, rel-5-{[(3S,4S)-4-amino-1,1-dioxidotetrahydro-2H-thiopyran-3-yl]amino}-3-{[1-(4 fluorophenyl)-1H-pyrazol-3-yl]amino}pyridine-2-carboxamide], the pIC50 was above 8.00.
As to `Cc1nc(Nc2cc(N[C@@H]3CCCC[C@@H]3N)cnc2C(N)=O)ccc1-c1ccc2cccnc2c1` [Example 3.27, 5-{[(1R,2S)-2-aminocyclohexyl]amino}-3-[(6-methyl-5-quinolin-7-ylpyridin-2-yl)amino]pyridine-2-carboxamide], the pIC50 is above 8.00.
Same read-out and setting: as for `Cc1cc(C)nc(Nc2cc(NC(C)CN)cnc2C(N)=O)c1` (centres unmarked) [Example 1.30, 5-[(2-amino-1-methylethyl)amino]-3-[(4,6-dimethylpyridin-2-yl)amino]pyridine-2-carboxamide], the figure is above 8.00; as for `Cc1nc(Nc2cc(N[C@@H]3CCCC[C@@H]3N)cnc2C(N)=O)ccc1-c1ccccc1` [Example 3.2, 5-{[(1R,2S)-2-aminocyclohexyl]amino}-3-[(6-methyl-5-phenylpyridin-2-yl)amino]pyridine-2-carboxamide], above 8.00; as for `Cc1cc(-c2ccccc2)cc(Nc2cc(N[C@@H]3CCCC[C@@H]3N)cnc2C(N)=O)n1` [Example 4.1, 5-{[(1R,2S)-2-aminocyclohexyl]amino}-3-[(6-methyl-4-phenylpyridin-2-yl)amino]pyridine-2-carboxamide], above 8.00.
The same measure, in the same setting: under `C[C@H](N)CNc1cnc(C(N)=O)c(Nc2ccn(-c3ccc(F)cc3)n2)c1` [Example 1.93, 5-{[(2S)-2-aminopropyl]amino}-3-{[1-(4-fluorophenyl)-1H-pyrazol-3-yl]amino}pyridine-2-carboxamide] stands above 8.00; under `Cc1ccc(-n2ccc(Nc3cc(N[C@@H]4CCCC[C@@H]4N)cnc3C(N)=O)n2)cc1` [Example 1.64, 5-{[(1R,2S)-2-aminocyclohexyl]amino}-3-{[1-(4-methylphenyl)-1H-pyrazol-3-yl]amino}pyridine-2-carboxamide], above 8.00; under `Cn1ccc(Nc2cc(N[C@@H]3CCCC[C@@H]3N)cnc2C(N)=O)n1` [Example 1.33, 5-{[(1R,2S)-2-aminocyclohexyl]amino}-3-[(1-methyl-1H-pyrazol-3-yl)amino]pyridine-2-carboxamide], 7.00 to 8.00.
With `Cc1cc(Nc2cc(N[C@@H]3CCCC[C@@H]3N)cnc2C(N)=O)nc(-c2cnn(C)c2)c1` [Example 1.110, 5-{[(1R,2S)-2-aminocyclohexyl]amino}-3-{[4-methyl-6-(1-methyl-1H-pyrazol-4-yl)pyridin-2-yl]amino}pyridine-2-carboxamide], the pIC50 is above 8.00.
Still for that read-out and setting: under `Cc1cc(C)nc(Nc2cc(N[C@@H](CC(C)C)C(N)=O)cnc2C(N)=O)c1` [Example 1.40, N^2-{6-carbamoyl-5-[(4,6-dimethylpyridin-2-yl)amino]pyridin-3-yl}leucinamide] stands above 8.00.
In the case of `Cc1cc(C)nc(Nc2cc(NCC(N)Cc3ccccc3)cnc2C(N)=O)c1` (centres unmarked) [Example 2.12, 5-[(2-amino-3-phenylpropyl)amino]-3-[(4,6-dimethylpyridin-2-yl)amino]pyridine-2-carboxamide], the pIC50 was 7.00 to 8.00.
As for `NC(=O)c1ncc(N[C@@H]2CCCC[C@@H]2N)cc1Nc1ccn(-c2ccccc2)n1` [Example 1.14, 5-{[(1R,2S)-2-aminocyclohexyl]amino}-3-[(1-phenyl-1H-pyrazol-3-yl)amino]pyridine-2-carboxamide], the pIC50 was above 8.00.
